Data reported in patent US9023821B2, “Use of MicroRNA for treating diseases associated with a dysfunction of the cilia in multiciliated epithelial cells” (Centre National de la Recherche Scientifique, priority 2009, dated 2015).

Tests used:
[1] = tested on: human airway epithelial cells (HAECs); assay: Agilent miRNA chips, miRNA expression at four stages of differentiation of HAECs; conditions: for Modulation (ratio of the level of intensity of expression in log2 in two stages of differentiation) measured with the Agilent chips, D7 − D0 / Modulation (ratio of the level of intensity of expression in log2 in two stages of differentiation) measured with the Agilent chips, FC − D7 / Modulation (ratio of the level of intensity of expression in log2 in two stages of differentiation) measured with the Agilent chips, WD − D0 / Modulation (ratio of the level of intensity of expression in log2 in two stages of differentiation) measured with the Agilent chips, WD − FC / Level of intensity of expression in log2 measured with the Agilent chips, D0 / Level of intensity of expression in log2 measured with the Agilent chips, D7 / Level of intensity of expression in log2 measured with the Agilent chips, FC / Level of intensity of expression in log2 measured with the Agilent chips, WD: Table VI; for Modulation (ratio of the level of intensity of expression in log2 at two stages of differentiation), FC − D7 / Modulation (ratio of the level of intensity of expression in log2 at two stages of differentiation), WD − FC: Agilent miRNA chips, Table V; for Level of intensity of expression in log2 measured with the Agilent chips, D0: stage D0; for Level of intensity of expression in log2 measured with the Agilent chips, D7: stage D7; for Level of intensity of expression in log2 measured with the Agilent chips, FC: stage FC; for Level of intensity of expression in log2 measured with the Agilent chips, WD: stage WD
Procedure, shortened: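 To benchmark sequencing, the microRNAome was also profiled by hybridizing labelled RNA from identical patient samples to v2 arrays with miRBase v.12.0 human content (866 miRNAs) and 89 viral miRNAs.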

[2] = tested on: basal cells and pyramidal cells of the airway epithelium; assay: miRNA expression in sorted basal cells versus pyramidal cells (ciliated + secretory), HTS and Agilent chips; set-up: species or system human; conditions: for Modulation of expression of the miRNAs in pyramidal cells (323(−)) relative to basal cells 323(+): HTS and Agilent chips; for Intensity of the level of expression in log2 in pyramidal cells (323(−)): pyramidal cells (ciliated + secretory)
Procedure, shortened: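 Read-out is miRNA profiling of total RNA, by Agilent chips or by high-throughput sequencing, in two sorted populations. These were basal cells (CD151+/TF+) and pyramidal ciliated/secretory cells (CD151−/TF−) from airway epithelium of 3 donors.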

[3] = tested on: human airway epithelial cells (HAECs); assay: High-throughput sequencing (HTS) of miRNAs at four stages of differentiation of HAECs; conditions: for Modulation (ratio of the level of intensity of expression in log2 in two stages of differentiation) measured by high-throughput sequencing, D7 − D0 / Modulation (ratio of the level of intensity of expression in log2 in two stages of differentiation) measured by high-throughput sequencing, FC − D7 / Modulation (ratio of the level of intensity of expression in log2 in two stages of differentiation) measured by high-throughput sequencing, WD − D0 / Modulation (ratio of the level of intensity of expression in log2 in two stages of differentiation) measured by high-throughput sequencing, WD − FC / Level of intensity of expression in log2 measured by high-throughput sequencing, D0 / Level of intensity of expression in log2 measured by high-throughput sequencing, D7 / Level of intensity of expression in log2 measured by high-throughput sequencing, FC / Level of intensity of expression in log2 measured by high-throughput sequencing, WD: Table VI; for Level of intensity of expression in log2 At the differentiated stage (WD) measured in HTS: healthy human airway epithelial tissue; for Level of intensity of expression in log2 measured by high-throughput sequencing, D0: stage D0; for Level of intensity of expression in log2 measured by high-throughput sequencing, D7: stage D7; for Level of intensity of expression in log2 measured by high-throughput sequencing, FC: stage FC; for Level of intensity of expression in log2 At the differentiated stage (WD) measured in HTS / Level of intensity of expression in log2 measured by high-throughput sequencing, WD: stage WD; for Modulation (ratio of the level of intensity of expression in log2 in two stages of differentiation), D7 − D0 / Modulation (ratio of the level of intensity of expression in log2 in two stages of differentiation), FC − D7 / Modulation (ratio of the level of intensity of expression in log2 in two stages of differentiation), WD − FC / Abundance (%), D0 / Abundance (%), D7 / Abundance (%), FC / Abundance (%), WD: HTS; for Abundance (%), D0: ALI-D0; for Abundance (%), D7: ALI-D7; for Abundance (%), FC: ALI-FC; for Abundance (%), WD: ALI-WD
Procedure, shortened: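 Cells at four air-liquid interface differentiation stages were lysed and total RNA with miRNAs purified. Adaptor Mix A or B ligation (16° C, 2-16 h) allowed 5′ or 3′ end sequencing. Abundance cut-off was 1% of total miRNAs in at least one stage.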

Substance | Modulation (ratio of the level of intensity of expression in log2 in two stages of differentiation) measured with the Agilent chips, D7 − D0 [1] [log2] | Modulation (ratio of the level of intensity of expression in log2 in two stages of differentiation) measured with the Agilent chips, FC − D7 [1] [log2] | Modulation (ratio of the level of intensity of expression in log2 in two stages of differentiation) measured with the Agilent chips, WD − D0 [1] [log2] | Modulation (ratio of the level of intensity of expression in log2 in two stages of differentiation) measured with the Agilent chips, WD − FC [1] [log2] | Level of intensity of expression in log2 measured with the Agilent chips, D0 [1] [log2] | Level of intensity of expression in log2 measured with the Agilent chips, D7 [1] [log2] | Level of intensity of expression in log2 measured with the Agilent chips, FC [1] [log2] | Level of intensity of expression in log2 measured with the Agilent chips, WD [1] [log2] | Modulation of expression of the miRNAs in pyramidal cells (323(−)) relative to basal cells 323(+) [2] | Intensity of the level of expression in log2 in basal cells (323(+)) [2] [log2] | Intensity of the level of expression in log2 in pyramidal cells (323(−)) [2] [log2] | Modulation (ratio of the level of intensity of expression in log2 in two stages of differentiation) measured by high-throughput sequencing, D7 − D0 [3] [log2] | Modulation (ratio of the level of intensity of expression in log2 in two stages of differentiation) measured by high-throughput sequencing, FC − D7 [3] [log2] | Modulation (ratio of the level of intensity of expression in log2 in two stages of differentiation) measured by high-throughput sequencing, WD − D0 [3] [log2] | Modulation (ratio of the level of intensity of expression in log2 in two stages of differentiation) measured by high-throughput sequencing, WD − FC [3] [log2] | Level of intensity of expression in log2 At the differentiated stage (WD) measured in HTS [3] [log2] | Level of intensity of expression in log2 measured by high-throughput sequencing, D0 [3] [log2] | Level of intensity of expression in log2 measured by high-throughput sequencing, D7 [3] [log2] | Level of intensity of expression in log2 measured by high-throughput sequencing, FC [3] [log2] | Level of intensity of expression in log2 measured by high-throughput sequencing, WD [3] [log2] | further results
hsa-miR-181a: human miRNA, SEQ ID No. 12 (AACAUUCAACGCUGUCGGUGAGU; expressed or natural sequence; listed as Homo sapiens) | 1.41 | −0.84 | 0.20 | −0.37 | 7.05 | 8.47 | 7.62 | 7.25 | −2.29 | 6.88 | 4.59 | 0.00 | 0.00 | 0.00 | 0.00 | 0.01 | 0.01 | 0.01 | 0.01 | 0.01 | Modulation (ratio of the level of intensity of expression in log2 at two stages of differentiation), FC − D7 [1]: −0.84 log2; Modulation (ratio of the level of intensity of expression in log2 at two stages of differentiation), WD − FC [1]: −0.37 log2
hsa-miR-191: human miRNA, SEQ ID No. 13 (CAACGGAAUCCCAAAAGCAGCUG; expressed or natural sequence; listed as Homo sapiens) | 2.32 | 0.29 | 2.31 | −0.30 | 0.64 | 2.97 | 3.25 | 2.95 | 0.00 | 0.14 | 0.14 | 0.90 | 0.84 | 2.15 | 0.42 | 16.82 | 14.67 | 15.57 | 16.40 | 16.82 | Modulation (ratio of the level of intensity of expression in log2 in two stages of differentiation), D7 − D0 [3]: 0.90 log2; Modulation (ratio of the level of intensity of expression in log2 in two stages of differentiation), FC − D7 [3]: 0.84 log2; Modulation (ratio of the level of intensity of expression in log2 in two stages of differentiation), WD − FC [3]: 0.42 log2; Abundance (%), D0 [3]: 5.71%; Abundance (%), D7 [3]: 10.68%; Abundance (%), FC [3]: 18.46%; Abundance (%), WD [3]: 18.69%
hsa-miR-193b: human miRNA, SEQ ID No. 14 (AACUGGCCCUCAAAGUCCCGCU; expressed or natural sequence; listed as Homo sapiens) | −0.67 | −1.19 | −1.93 | −0.07 | 8.62 | 7.95 | 6.76 | 6.69 | −3.57 | 3.90 | 0.33 | −1.17 | −0.90 | −1.60 | 0.48 | 11.67 | 13.26 | 12.09 | 11.19 | 11.67 | Modulation (ratio of the level of intensity of expression in log2 at two stages of differentiation), FC − D7 [1]: −1.19 log2; Modulation (ratio of the level of intensity of expression in log2 at two stages of differentiation), WD − FC [1]: −0.07 log2; cell type in which the miRNA is specifically expressed ([2]; sorted ciliated/pyramidal versus basal cells): more specific to the basal cells; Modulation (ratio of the level of intensity of expression in log2 in two stages of differentiation), D7 − D0 [3]: −1.17 log2; Modulation (ratio of the level of intensity of expression in log2 in two stages of differentiation), FC − D7 [3]: −0.90 log2; Modulation (ratio of the level of intensity of expression in log2 in two stages of differentiation), WD − FC [3]: 0.48 log2; Abundance (%), D0 [3]: 2.16%; Abundance (%), D7 [3]: 0.96%; Abundance (%), FC [3]: 0.50%; Abundance (%), WD [3]: 0.52%
